Key:
CPT1 [1] = assay: CPT1 activity in total blood cells of BNX mice after three weeks topical treatment; format: in vivo; details: 3 weeks
Description: (§1) The psoriasis model described by Wrone-Smith and Nickoloff (1996) was used. 5 mm non-lesional skin biopsies from five psoriatic patients were each split in four pieces and transplanted on 20 immuno-deficient BNX mice, i.e. four groups of five mice each. Psoriasis was induced in all mice by injection with donors super-antigen-activated blood cells. After psoriasis had developed, mice were treated for 3 weeks by applying either placebo-cream, cream containing a corticosteroid (betamethasone), 1% Etomoxir or 30% Etomoxir daily on the skin. The cream containing 30% Etomoxir was removed after 30 minutes while the other creams were left on the skin.
After the treatment period, liver and blood of the mice were analyzed for their CPT1 activity and GOT/GPT levels. Furthermore, the epidermal thickness, in particular the depth of reti ridges, the number of Ki67 positive cells and the percentage of ULEX-positive cells (this marker stains the upper layers of the epidermis in normal skin and the whole epidermis in psoriatic skin) in the epidermis were determined. […]
160 μl of bidestilled water was added to wells of a 96-well plate. […] After 5 to 30 min OD at 595 was measured versus reagent blank (0 μg BSA). For the calibration curve the OD was plotted against the concentration of BSA and total protein concentration of the liver samples was calculated in μg/μl. […]

[2] = Animal experiment, deaths during topical treatment; format: in vivo, BNX mice; details: 30% Etomoxir cream left on the skin; probably because they licked off the cream
Description: as §1, with “The cream containing 30% Etomoxir was removed after 30 minutes while the other creams were left on the skin.” left out

[3] = system: transplanted human psoriasis skin; assay: Psoriasis model, hematoxyline staining (epidermal thickness); format: in vivo, BNX mice; details: 3 weeks, placebo 138±24 μm; for Epidermal thickness: three mice
Description: as §1
(§2) After the treatment period, liver and blood of the mice were analyzed for their CPT1 activity and GOT/GPT levels. Furthermore, the epidermal thickness, in particular the depth of reti ridges, the number of Ki67 positive cells and the percentage of ULEX-positive cells (this marker stains the upper layers of the epidermis in normal skin and the whole epidermis in psoriatic skin) in the epidermis were determined.
(§3) Histological stainings are performed on cryo-preserved tissues. Diagonal cross sections (8μm) are cut (see FIG. 20), covering all skin-layers (located at the top layer are the stratum corneus and epidermis of the transplanted human biopsy and at the bottom the murine tissue is located, forming a base for the transplanted human skin).
Sections are stained with hematoxyline and evaluated at a microscopic magnification of 200×. Two sections taken round the middle of the biopsy are evaluated. Thickness measurements are performed of the total section using a microscopic ocular with intergraded graduation-lines (ruler). From this, the average epidermal thickness measurements for ridges and the average of the total epidermis (mean of ridges and inter-ridges) are calculated in μm (taken into account magnification factor).

CPT1 [4] = assay: Inhibition of CPT1 activity by the salt of Etomoxir in vitro, pooled blood cell extract; format: biochemical, BNX mice
Description: 500 μl of total blood cells were frozen and drawn three tines to break up the cells. Samples were diluted by adding 500 μl buffer A and then centrifuged at 20000×g for 20 min at 4° C. Solid Pellets were resuspended in 200 μl buffer A and kept on ice for further analysis or stored at −80° C.
(§4) 2 μl of a 100× stock of Etomoxir-salt (0; 0.1; 1.0 and 10 mM) dissolved in DMSO were added in 1.5 ml Eppendorf tubes in duplicates. 2× activation mix was premixed on ice with either 15 μg of total protein of each liver sample or 300 μg of total protein of each plasma sample (final volume per reaction was 98 μl). 98 μl of this mix was added to each tube containing the 2 μl of inhibitor and tubes were left at 30° C. for exactly 30 min. Then 105 μl of reaction mix were added to start the CPT1 reaction. Again samples were incubated for exactly 5 min at 30° C. […] Finally, either 150 μl of the butanol phase were mixed with 1 ml Microscint0 in a 24 well-plate and cpm values were measured with the scintillation counter from Canberra Packard. P values were calculated with the t-test of the SigmaPlot 2001 software.
(§5) To determine the sensitivity of the CPT1 activity in response to Etomoxir, cell pellet samples were pooled and treated with increasing amounts of Etomoxir. […] 85% of the measured activity in the blood cells was Etomoxir insensitive and therefore the relevance of this assay is questionable.

[5] = system: transplanted human psoriasis skin; assay: Psoriasis model, Ki-67 staining (keratinocyte proliferation); format: in vivo, BNX mice; details: 3 weeks
Description: as §1, §2, §3
Sections are stained with mu-∝Hu monoclonal Ab and evaluated at a microscopic magnification of 400×. Two representative sections are evaluated. The total number of positive cells are counted of the total section and indicated per unit-length. A unit-length is a microscopic view (of a part of the section) at a magnification of 400× (see FIG. 20). Per section several unit-lengths are counted (minimum of 8). From this the average number of Ki-67 positive cells per unit-length is calculated.

CPT1 [6] = molecular target: T1, CPT1 (Mus musculus, UniProt P97742); assay: CPT1 activity in liver of BNX mice after three weeks topical treatment; format: in vivo; details: 3 weeks, placebo set 100%
T1 construct: A small piece of frozen liver (appr. 200 mg) was homogenized in 600 μl of cold sucrose buffer; from tissue; host or cells: liver of BNX mice (mitochondrial enriched fraction)
T1 sequence (P97742 1-773): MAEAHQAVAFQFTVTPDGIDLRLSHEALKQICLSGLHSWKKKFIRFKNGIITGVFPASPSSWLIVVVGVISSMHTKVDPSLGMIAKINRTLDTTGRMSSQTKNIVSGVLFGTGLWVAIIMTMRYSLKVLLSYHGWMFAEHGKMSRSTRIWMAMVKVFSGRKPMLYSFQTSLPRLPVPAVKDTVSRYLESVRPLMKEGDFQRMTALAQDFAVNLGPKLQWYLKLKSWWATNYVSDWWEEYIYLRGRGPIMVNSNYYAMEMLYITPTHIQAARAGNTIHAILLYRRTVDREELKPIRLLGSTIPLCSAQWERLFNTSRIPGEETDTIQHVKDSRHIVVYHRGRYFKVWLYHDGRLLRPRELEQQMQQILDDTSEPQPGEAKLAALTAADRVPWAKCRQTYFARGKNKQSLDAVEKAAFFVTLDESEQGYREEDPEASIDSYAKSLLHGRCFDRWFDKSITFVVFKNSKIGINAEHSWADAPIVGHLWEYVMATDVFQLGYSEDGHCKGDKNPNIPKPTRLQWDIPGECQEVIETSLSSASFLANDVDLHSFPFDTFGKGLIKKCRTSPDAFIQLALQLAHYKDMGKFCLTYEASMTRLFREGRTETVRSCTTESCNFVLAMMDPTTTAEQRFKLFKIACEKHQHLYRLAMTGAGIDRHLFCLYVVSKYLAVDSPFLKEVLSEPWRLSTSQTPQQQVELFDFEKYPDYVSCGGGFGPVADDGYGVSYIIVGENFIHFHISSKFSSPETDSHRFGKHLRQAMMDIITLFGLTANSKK
Description: as §1, §2
(§6) A small piece of frozen liver (appr. 200 mg) was homogenized in 600 μl of cold sucrose buffer by 8-10 strokes with tight pestle of dounce homogenizer. Homogenate was centrifuged at 700×g for 10 min at 4° C. Supernatant was again centrifuged at 20000×g for 20 min at 4° C. Pellet was resuspended in 1400 μl buffer A and kept on ice for further analysis or stored at −80° C.
160 μl of bidestilled water was added to wells of a 96-well plate. For the standard curve 0 μg, 1 μg, 2 μg, 3 μg, 4 μg and 5 μg of BSA (BSA stock: 1 mg/ml from New England Biolabs) was added in duplicates to the first […]. 1 μl of the liver samples and the blood samples were added in duplicates to the wells. Finally 40 μl dye reagent concentrate (Bio-Rad protein assay) was added and mixed by pipetting up and down. After 5 to 30 min OD at 595 was measured versus reagent blank (0 μg BSA). For the calibration curve the OD was plotted against the concentration of BSA and total protein concentration of the liver samples was calculated in μg/μl.
20 μg of total protein of each liver sample and 300 μg of total protein of each plasma sample were added in 1.5 ml Eppendorf tubes (safe lock) and filled up to 100 μl with buffer A (all in duplicates). Background control was buffer A only. The tubes were preincubated for exactly 5 min at 30° C. prior to the addition of 105 μl of reaction mix. Again samples were incubated for exactly 5 min at 30° C. Reactions were stopped by adding 800 μl of 6% perchloric acid and stored on ice. […] Finally, either 100 μl (liver samples) or 150 μl (plasma samples) of the butanol phase were mixed with 1 ml Microscint0 in a 24 well-plate and cpm values were measured with the scintillation counter from Canberra Packard. […]

CPT1 [7] = molecular target: T1, CPT1; assay: Inhibition of CPT1 activity by the salt of Etomoxir in vitro, mitochondrial enriched fractions of liver; format: biochemical, BNX mice
Description: as §6
as §4, with “min.” for “min. Then 105 μl of reaction mix were added to start the CPT1 reaction. Again samples were incubated for exactly 5 min at 30° C.”
as §5

[8] = system: transplanted human psoriasis skin; assay: Psoriasis model, ULEX staining (keratinocyte differentiation); format: in vivo, BNX mice; details: 3 weeks, placebo 55±19%
Description: as §1, §2, §3
Sections are stained with biotinylated Europaeus Agglutinin 1 and evaluated at a microscopic magnification of 200×. Two representative sections are evaluated. The thickness of both the ULEX positive cell-layer (distribution of ULEX) as well as the ULEX negative layer of the total section is measured using a microscopic ocular with intergraded graduation-lines (ruler). From this the average ratio of ULEX positive differentiation is calculated (indicated as percentage of epidermis positive for ULUX).

For `CCOC(=O)C1(CCCCCCOc2ccc(Cl)cc2)CO1` (stereo not shown) [Etomoxir, 2-(6-(4-chlorophenoxy)hexyl)oxirane-2-carboxylic acid ethyl ester], the “CPT1 activity in blood cell pellets versus placebo group” value (CPT1 [1]; 1% Etomoxir cream daily, p value 0.01) was “significantly higher”, the “CPT1 activity in blood cell pellets versus placebo group” value (CPT1 [1]; 30% Etomoxir cream daily, p value>0.05) was “not significantly different” and the Deaths of animals [2] was “two out of five animals died”. The Epidermal thickness ([3]; 1% Etomoxir cream daily) was 88±10 μm, the Epidermal thickness ([3]; 30% Etomoxir cream daily (removed after 30 minutes)) was 69±4 μm and the “Reduction of CPT1 activity in pooled blood cell pellet samples” value (CPT1 [4]; increasing amounts of Etomoxir (salt), activity without Etomoxir = 100%) was ~15%. For the same molecule, the “Part of the measured CPT1 activity in blood cells that is Etomoxir insensitive” value (CPT1 [4]; pooled cell pellet samples) was ~85%, the “Number of Ki67 positive cells as compared to the placebo group” value ([5]; 1% Etomoxir cream) was “significant decrease” and the “Number of Ki67 positive cells as compared to the placebo group” value ([5]; 30% Etomoxir cream) was “significant decrease”. For the same molecule, the “CPT1 activity in liver compared to the placebo group” value (CPT1 [6]; 1% Etomoxir cream daily) was 73%, the “CPT1 activity in liver compared to the placebo group” value (CPT1 [6]; 30% Etomoxir cream daily, excluding liver of dead animals) was 59% and the “CPT1 activity in liver compared to the placebo group” value (CPT1 [6]; 30% Etomoxir cream daily, including the two dead animals) was 40%. For the same molecule, the “Sensitivity of CPT1 activity measured in liver to Etomoxir” value (CPT1 [7]) was “highly Etomoxir sensitive”, the “Percentage of ULEX-positive cells in the epidermis (differentiation rate)” value ([8]; 1% Etomoxir cream) was 17±11% and the “Percentage of ULEX-positive cells in the epidermis (differentiation rate)” value ([8]; 30% Etomoxir cream) was 18±8%.

For `C[C@H]1C[C@H]2[C@@H]3CCC4=CC(=O)C=C[C@]4(C)[C@@]3(F)[C@@H](O)C[C@]2(C)[C@@]1(O)C(=O)CO` [corticosteroid, betamethasone], the Average epidermal thickness ([3]; corticosteroid cream daily) was 81±9 μm, the “Number of Ki67 positive cells” value ([5]; corticosteroid cream daily, placebo 55±37) was 10±6 positive cells/unit-length and the “CPT1 activity in liver compared to the placebo group” value (CPT1 [6]; corticosteroid (betamethasone) cream daily) was 83%. The “Percentage of ULEX-positive cells in the epidermis” value ([8]; corticosteroid cream daily) was 24±7%.
